# Measurements reported in ChEMBL document CHEMBL1770070, “Dibenzylideneacetone analogues as novel Plasmodium falciparum inhibitors” (Bioorg Med Chem Lett, 2011).
# Experiments:
# [1] = test system: Plasmodium falciparum; test: Antiplasmodial activity against blood stage of chloroquine-sensitive Plasmodium falciparum 3D7 infected in human O positive erythrocytes after 48 hrs by SYBR green-I based fluorescence assay; format: functional, organism-based; details: 3D7, 48 h
# [2] = test system: Plasmodium falciparum; test: Resistance index, ratio for IC50 for chloroquine-resistant Plasmodium falciparum isolate RKL9 to IC50 for chloroquine-sensitive Plasmodium falciparum 3D7; format: functional
# [3] = Therapeutic index, TC50 for human HeLa cells to IC50 for chloroquine-resistant Plasmodium falciparum isolate RKL9; format: cell-based; details: read-out: TI
# [4] = Cytotoxic activity against human HeLa cells after 24 to 48 hrs by MTT assay; format: cell-based; details: read-out: TC50 (the source's name)
# [5] = test system: Plasmodium falciparum; test: Antiplasmodial activity against blood stage of chloroquine-resistant Plasmodium falciparum isolate RKL9 infected in human O positive erythrocytes after 48 hrs by SYBR green I-based fluorescence assay; format: functional, organism-based; details: isolate RKL9, 48 h
SMILES,IC50 [1] [µM],Ratio IC50 [2],selectivity ratio [3],CC50 [4] [µM],IC50 [5] [µM]
O=C(/C=C/c1ccc(Cl)cc1)/C=C/c1ccc(Cl)cc1,92.4,,,,
COc1ccc(/C=C/C2=NN(c3ccccc3)C(c3ccc(OC)cc3)C2)cc1 (configuration not stated),> 130,,,,
C(=C\c1ccccc1)/C1=NN(c2ccccc2)C(c2ccccc2)C1 (configuration not stated),> 308,,,,
COc1ccc(/C=C/C(=O)/C=C/c2ccc(OC)c(OC)c2)cc1OC,1.97,0.85,166,282,1.69
CN(C)c1ccc(/C=C/C(=O)/C=C/c2ccc(N(C)C)cc2)cc1,156,,,,
O=C(/C=C/c1ccc(Cl)cc1Cl)/C=C/c1ccc(Cl)cc1Cl,9.94,1.08,> 25,> 269,10.8
O=C(/C=C/c1cccc([N+](=O)[O-])c1)/C=C/c1cccc([N+](=O)[O-])c1,38.5,,,,
Cc1ccc(/C=C/C2=NN(c3ccccc3)C(c3ccc(C)cc3)C2)cc1 (configuration not stated),> 142,,,,
O=C(/C=C/c1ccccc1Cl)/C=C/c1ccccc1Cl,6.26,1,37,231,6.26
COc1ccc(/C=C/C(=O)/C=C/c2ccc(OC)cc2)cc1,255,,,,
Fc1ccc(/C=C/C2=NN(c3ccccc3)C(c3ccc(F)cc3)C2)cc1 (configuration not stated),9.1,1.21,> 25,> 277,11.1

# Further lines, with some results ahead:
IC50 [1] [µM],SMILES,Ratio IC50 [2],selectivity ratio [3],CC50 [4] [µM],IC50 [5] [µM]
213,O=C(/C=C/c1ccccc1)/C=C/c1ccccc1,,,,
114,Cc1ccc(/C=C/C(=O)/C=C/c2ccc(C)cc2)cc1,,,,
74.7,COc1ccccc1/C=C/C(=O)/C=C/c1ccccc1OC,,,,
222,O=C(/C=C/c1ccc(Br)cc1)/C=C/c1ccc(Br)cc1,,,,
133,O=C(/C=C/c1ccc(F)cc1)/C=C/c1ccc(F)cc1,,,,
